According to ChEMBL document CHEMBL3352610, “Discovery of potent and selective GIRK1/2 modulators via 'molecular switches' within a series of 1-(3-cyclopropyl-1-phenyl-1H-pyrazol-5-yl)ureas” (Bioorg Med Chem Lett, 2014):
Calls of active or inactive are those of the source. The calls are words filed in the database; no cut-off is given here.

Molecular target: Kir3.1/Kir3.2 (Homo sapiens) (UniProt P48549+P48051)
Test: Activation of GIRK1/2 (unknown origin) by thallium-flux based assay relative to ML297
Format: protein-complex assay
Details: not given

| Efficacy [%] | SMILES |
| --- | --- |
| 67 | Cc1ccc(NC(=O)Nc2cc(C3CC3C)nn2CC(F)(F)F)cc1 (stereo unspecified) |
| 101 | CC1CC1c1cc(NC(=O)Nc2cccc(F)c2)n(CC(F)(F)F)n1 (stereo unspecified) |
| 66 | CC1CC1c1cc(NC(=O)Nc2ccc(Cl)cc2)n(CC(F)(F)F)n1 (stereo unspecified) |
| 81 | Cc1cc(NC(=O)Nc2cc(C3CC3C)nn2CC(F)(F)F)ccc1F (stereo unspecified) |
| 70 | CC1CC1c1cc(NC(=O)Nc2ccc(C(F)(F)F)cc2)n(CC(F)(F)F)n1 (stereo unspecified) |
| 100 | CC1CC1c1cc(NC(=O)Nc2ccc(F)c(F)c2)n(CC(F)(F)F)n1 (stereo unspecified) |

Molecular target: T1, Kir3.1/Kir3.4 (Homo sapiens, UniProt P48544+P48549)
T1 sequence (P48549 whole entry): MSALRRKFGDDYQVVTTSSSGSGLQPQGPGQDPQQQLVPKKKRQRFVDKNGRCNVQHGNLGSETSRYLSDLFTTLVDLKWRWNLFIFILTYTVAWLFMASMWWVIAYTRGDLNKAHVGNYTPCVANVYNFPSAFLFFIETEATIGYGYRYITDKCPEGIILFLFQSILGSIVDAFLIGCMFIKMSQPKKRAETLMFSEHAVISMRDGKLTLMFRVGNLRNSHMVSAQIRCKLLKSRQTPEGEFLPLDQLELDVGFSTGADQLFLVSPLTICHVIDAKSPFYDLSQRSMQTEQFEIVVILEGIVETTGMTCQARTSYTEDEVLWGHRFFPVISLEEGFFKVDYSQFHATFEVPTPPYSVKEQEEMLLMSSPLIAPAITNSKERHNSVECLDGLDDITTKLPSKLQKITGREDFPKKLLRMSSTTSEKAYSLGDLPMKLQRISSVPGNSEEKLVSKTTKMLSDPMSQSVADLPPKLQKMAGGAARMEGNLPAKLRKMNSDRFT
T1 sequence (P48544 whole entry): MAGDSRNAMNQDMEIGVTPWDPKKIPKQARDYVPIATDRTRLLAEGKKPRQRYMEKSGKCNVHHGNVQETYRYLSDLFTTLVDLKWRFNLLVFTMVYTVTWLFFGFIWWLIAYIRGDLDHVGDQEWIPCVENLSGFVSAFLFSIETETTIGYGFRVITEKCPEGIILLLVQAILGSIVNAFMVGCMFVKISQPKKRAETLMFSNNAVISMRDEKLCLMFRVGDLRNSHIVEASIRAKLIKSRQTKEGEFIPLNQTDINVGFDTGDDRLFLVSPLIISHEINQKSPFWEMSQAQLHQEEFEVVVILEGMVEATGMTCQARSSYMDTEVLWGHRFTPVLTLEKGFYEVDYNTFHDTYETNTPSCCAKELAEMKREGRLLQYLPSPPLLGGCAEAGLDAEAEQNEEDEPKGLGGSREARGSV
Test: Activation of GIRK1/4 (unknown origin) by thallium-flux based assay
Format: protein-complex assay
Details: not given

| EC50 [nM] | SMILES |
| --- | --- |
| 2300 | Cc1ccc(NC(=O)Nc2cc(C3CC3C)nn2CC(F)(F)F)cc1 (stereo unspecified) |
| 1000 | CC1CC1c1cc(NC(=O)Nc2cccc(F)c2)n(CC(F)(F)F)n1 (stereo unspecified) |
| 1800 | CC1CC1c1cc(NC(=O)Nc2ccc(Cl)cc2)n(CC(F)(F)F)n1 (stereo unspecified) |
| 1200 | Cc1cc(NC(=O)Nc2cc(C3CC3C)nn2CC(F)(F)F)ccc1F (stereo unspecified) |
| 2000 | CC1CC1c1cc(NC(=O)Nc2ccc(C(F)(F)F)cc2)n(CC(F)(F)F)n1 (stereo unspecified) |
| 4900 | CC1CC1c1cc(NC(=O)Nc2ccc(F)c(F)c2)n(CC(F)(F)F)n1 (stereo unspecified) |

Molecular target: T2, Kir3.1/Kir3.2 (Homo sapiens, UniProt P48051+P48549)
T2 sequence (P48549 whole entry): T1 sequence (P48549 whole entry)
T2 sequence (P48051 whole entry): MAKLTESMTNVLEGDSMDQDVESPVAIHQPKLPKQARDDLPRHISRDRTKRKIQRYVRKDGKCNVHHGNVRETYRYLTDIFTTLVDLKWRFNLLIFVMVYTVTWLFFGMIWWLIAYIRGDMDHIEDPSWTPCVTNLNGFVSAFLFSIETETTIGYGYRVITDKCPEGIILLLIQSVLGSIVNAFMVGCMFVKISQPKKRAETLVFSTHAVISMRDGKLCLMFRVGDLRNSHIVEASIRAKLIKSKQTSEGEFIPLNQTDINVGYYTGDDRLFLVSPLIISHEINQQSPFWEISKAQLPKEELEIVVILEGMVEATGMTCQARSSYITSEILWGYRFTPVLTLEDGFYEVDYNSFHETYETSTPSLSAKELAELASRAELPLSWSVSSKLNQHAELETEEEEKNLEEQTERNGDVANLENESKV
Test: Activation of GIRK1/2 (unknown origin) by thallium-flux based assay
Format: protein-complex assay
Details: not given

| EC50 [nM] | SMILES |
| --- | --- |
| 270 | Cc1ccc(NC(=O)Nc2cc(C3CC3C)nn2CC(F)(F)F)cc1 (stereo unspecified) |
| 310 | CC1CC1c1cc(NC(=O)Nc2cccc(F)c2)n(CC(F)(F)F)n1 (stereo unspecified) |
| 150 | CC1CC1c1cc(NC(=O)Nc2ccc(Cl)cc2)n(CC(F)(F)F)n1 (stereo unspecified) |
| 700 | Cc1cc(NC(=O)Nc2cc(C3CC3C)nn2CC(F)(F)F)ccc1F (stereo unspecified) |
| 310 | CC1CC1c1cc(NC(=O)Nc2ccc(C(F)(F)F)cc2)n(CC(F)(F)F)n1 (stereo unspecified) |
| 4900 | CC1CC1c1cc(NC(=O)Nc2ccc(F)c(F)c2)n(CC(F)(F)F)n1 (stereo unspecified) |

Molecular target: Kir3.1/Kir3.4 (Homo sapiens) (UniProt P48549+P48544)
Test: Activation of GIRK1/4 (unknown origin) by thallium-flux based assay relative to ML297
Format: protein-complex assay
Details: not given

| Efficacy [%] | SMILES |
| --- | --- |
| 100 | Cc1ccc(NC(=O)Nc2cc(C3CC3C)nn2CC(F)(F)F)cc1 (stereo unspecified) |
| 100 | CC1CC1c1cc(NC(=O)Nc2cccc(F)c2)n(CC(F)(F)F)n1 (stereo unspecified) |
| 100 | CC1CC1c1cc(NC(=O)Nc2ccc(Cl)cc2)n(CC(F)(F)F)n1 (stereo unspecified) |
| 35 | Cc1cc(NC(=O)Nc2cc(C3CC3C)nn2CC(F)(F)F)ccc1F (stereo unspecified) |
| 100 | CC1CC1c1cc(NC(=O)Nc2ccc(C(F)(F)F)cc2)n(CC(F)(F)F)n1 (stereo unspecified) |
| 112 | CC1CC1c1cc(NC(=O)Nc2ccc(F)c(F)c2)n(CC(F)(F)F)n1 (stereo unspecified) |

Molecular target: Kir3.2/Kir3.3 (Homo sapiens) (UniProt P48051+Q92806)
Test: Modulation of GIRK2/3 (unknown origin) by thallium-flux based assay
Format: protein-complex assay
Details: not given

| Activity | SMILES |
| --- | --- |
| inactive | Cc1cc(NC(=O)Nc2ccc(F)c(F)c2)n(-c2ccccc2)n1 |

Test system: not listed separately
Test: Stability in rat microsomes assessed as compound remaining measured after 90 mins
Format: ADME, Microsome
Details: read-out: Stability

| remaining at […] [%] | SMILES |
| --- | --- |
| 45 | Cc1cc(NC(=O)Nc2ccc(F)c(F)c2)n(-c2ccccc2)n1 |
